In brackets after ≈: the same amount, converted by molar mass. Structures can show the parent of a compound that is named as a salt.
Assays:
Format in all cases: physicochemical
[1] = Thermogravimetric (TGA) analysis; details: TGA 20° C. to 350° C., 10° C./min, nitrogen
Procedure: Thermogravimetric (TGA) analysis was performed on the tromethamine salt prepared in Example 3, the free base prepared in Comparative Example 1, the L-arginine salt prepared in Comparative Example 2, the meglumine salt prepared in Comparative Example 3, and the potassium salt prepared in Comparative Example 4. Thermogravimetric analysis was performed from 20° C. to 350° C. at a heating rate of 10° C./min under nitrogen conditions using TGA Q50 manufactured by TA Instruments, Inc. The weight loss at about 170° C. or less for each salt was measured, and results thereof are shown in FIG. 2 (tromethamine salt), FIG. 3 (free base), FIG. 6 (L-arginine salt), FIG. 9 (meglumine salt), and 12 (potassium salt), and summarized in Table 4 below.

[2] = Hygroscopicity test, European Pharmacopoeia conditions, 25° C. and 80% RH; details: stored 24 hours at 25° C., 80% RH (EP conditions)
Procedure: Under the hygroscopicity test conditions of the European Pharmacopoeia (EP), the tromethamine salt prepared in Example 3 and the free base prepared in Comparative Example 1 were stored for 24 hours at a temperature of 25° C. and a relative humidity of 80%, and then the mass change of the sample due to moisture sorption was measured.

[3] = Solubility in water and bio-relevant media; details: for Final pH: after 24 hours stirring; for solubility at 24 h: thermodynamic from solid, room temperature, 2 mg/mL loading
Procedure: Solubility in water and bio-relevant media, i.e., stimulated gastric fluid (SGF), fasted state simulated intestinal fluid (FaSSIF), and fed state simulated intestinal fluid (FeSSIF) of the free base and the tromethamine salt of (S)-2-((4-(6-((5-cyanopyridin-2-yl)methoxy)pyridin-2-yl)piperazin-1-yl)methyl)-1-(oxetan-2-ylmethyl)-1H-benzo[d]imidazol-6-carboxylic acid was confirmed.
Buffers for the bio-relevant media were prepared as follows.
Water: Laboratory Milli-Q purified water.
SGF (Stimulated Gastric Fluid): 2.0 g of sodium chloride and 7 mL of hydrochloric acid dissolved in 1000 mL of water was used.
FaSSIF (Fasted State Simulated Intestinal Fluid): A commercial product purchased from Bio-Relevant Company and manufactured according to instructions was used.
FeSSIF (Fed State Simulated Intestinal Fluid): A commercial product purchased from Bio-Relevant Company and prepared according to instructions was used.
For the experiment, about 2 mg of compound (2 mg as free base form) was weighed into each glass vial and then 1 mL of medium was added (final concentration of 2 mg/mL). Then, the sample was continuously stirred for 24 hours in a magnetic stirrer at a speed of […] at room temperature. Then, the pH was measured and the mixture was filtered using MultiScreen®HTS-HV 96-well plate (Merck; 0.45 μm hydrophilic low protein binding Durapore® membrane). Solubility was analyzed using HPLC.

[4] = Drug stability evaluation under stress condition (80° C., open)
Procedure: The free base and the tromethamine salt of (S)-2-((4-(6-((5-cyanopyridin-2-yl)methoxy)pyridin-2-yl)piperazin-1-yl)methyl)-1-(oxetan-2-ylmethyl)-1H-benzo[d]imidazol-6-carboxylic acid were weighed into each vial and stored under stress conditions to investigate stability.
The stress conditions are as follows: • high temperature open room condition: 80° C.;
Samples were analyzed by XRPD and HPLC at the onset (Day 0) and week 1 of storage.

[5] = Hygroscopicity test by DVS, 25° C. and 90% RH; details: moisture sorption
Procedure: Samples in amounts of about 5 to 25 mg were tested for moisture sorption/desorption profiles at 25° C. under a 0% to 90% relative humidity (RH) cycle according to the pa-rameters in Table 2 below using DVS Intrinsic 1 manufactured by Surface Measurement System Ltd.
Hygroscopicity was measured for the tromethamine salt prepared in Example 3, the L-arginine salt prepared in Comparative Example 2, the meglumine salt prepared in Comparative Example 3, and the potassium salt prepared in Comparative Example 4. Results thereof are shown in FIGS. 14 to 17, respectively, and the results of the weight percent gain according to moisture sorption are shown in Table 6 below.

[6] = XRPD analysis of crystal form under various relative humidity conditions; details: 20° C.
Procedure: The X-ray powder diffraction (XRPD) pattern was measured using DYY884-AERIS-300 manufactured by PANalytical company, and analyzed with a step size of about 0.02° over the range of about 2° to 45° in the […].
The XRPD analysis of the crystalline form 1 of the tromethamine salt of (S)-2-((4-(6-((5-cyanopyridin-2-yl)methoxy)pyridin-2-yl)piperazin-1-yl)methyl)-1-(oxetan-2-ylmethyl)-1H-benzo[d]imidazol-6-carboxylic acid was performed under the conditions of varying relative humidity from 15% RH to 90% RH at 20° C., and the changes in the crystalline form according to the relative humidity were confirmed.

[7] = simulated gastric fluid, SGF (pH 2.0)
[8] = 80° C. (Week 1), high temperature open

Weight loss (%) at about 170° C. or less [1] [%]	Weight percent gain (%) [2] [%]	Final pH ([3]; FaSSIF (pH 6.5))	Final pH ([3]; FeSSIF (pH 5.8))	Final pH ([3]; SGF (pH 2.0))	Final pH ([3]; Water)	solubility at 24 h [3, 7] [µg/mL]	solubility at 24 h ([3]; FaSSIF (pH 6.5)) [µg/mL]	solubility at 24 h ([3]; FeSSIF (pH 5.8)) [µg/mL]	solubility at 24 h ([3]; Water) [µg/mL]	Chemical stability by HPLC purity % [4, 8] [%]	Chemical stability by HPLC purity % ([4]; Onset (Day 0)) [%]	Weight percent gain (%) [5] [%]	SMILES	also measured
3.323	2.7	6.49	5.70	1.74	6.64	850 (≈ 1580 µM)	160 (≈ 297 µM)	63 (≈ 117 µM)	106 (≈ 196 µM)	96.70	97.84	–	N#Cc1ccc(COc2cccc(N3CCN(Cc4nc5ccc(C(=O)O)cc5n4C[C@@H]4CCO4)CC3)n2)nc1 [Comparative Example 1, (S)-2-((4-(6-((5-cyanopyridin-2-yl)methoxy)pyridin-2-yl)piperazin-1-yl)methyl)-1-(oxetan-2-ylmethyl)-1H-benzo[d]imidazol-6-carboxylic acid]	–
0.1207	0.22	6.50	5.85	1.90	7.21	710	> 2000	336	> 2000	97.32	97.99	1.44	N#Cc1ccc(COc2cccc(N3CCN(Cc4nc5ccc(C(=O)O)cc5n4C[C@@H]4CCO4)CC3)n2)nc1 [Example 3, tromethamine salt of (S)-2-((4-(6-((5-cyanopyridin-2-yl)methoxy)pyridin-2-yl)piperazin-1-yl)methyl)-1-(oxetan-2-ylmethyl)-1H-benzo[d]imidazol-6-carboxylic acid]	Crystalline Form ([6]; 15% RH, during desorption): Form 1; Crystalline Form ([6]; 15% RH, increasing humidity): 1; Crystalline Form ([6]; 20% RH, increasing humidity): 1; Crystalline Form ([6]; 25% RH, increasing humidity): 1; Crystalline Form ([6]; 30% RH, during desorption): Form 1; Crystalline Form ([6]; 30% RH, increasing humidity): 1; Crystalline Form ([6]; 35% RH, increasing humidity): 1; Crystalline Form ([6]; 40% RH, during desorption): Form 1; Crystalline Form ([6]; 40% RH, increasing humidity): 1; Crystalline Form ([6]; 45% RH, increasing humidity): 1; Crystalline Form ([6]; 50% RH, during desorption): intermediate; Crystalline Form ([6]; 50% RH, increasing humidity): 1; Crystalline Form ([6]; 55% RH, increasing humidity): 1A; Crystalline Form ([6]; 60% RH, increasing humidity): 1A; Weight percent gain (%) ([5]; listed as tromethamine salt): about 1.44%; change in the XRPD pattern ([4]; harsh conditions, 80° C., week 1): did not show any change in the XRPD pattern; purity change rate ([4]; harsh conditions, 80° C., week 1 vs day 0): less than 1%

Continued, compound first:

SMILES	Weight loss (%) at about 170° C. or less [1] [%]	Weight percent gain (%) [2] [%]	Final pH ([3]; FaSSIF (pH 6.5))	Final pH ([3]; FeSSIF (pH 5.8))	Final pH ([3]; SGF (pH 2.0))	Final pH ([3]; Water)	solubility at 24 h [3, 7] [µg/mL]	solubility at 24 h ([3]; FaSSIF (pH 6.5)) [µg/mL]	solubility at 24 h ([3]; FeSSIF (pH 5.8)) [µg/mL]	solubility at 24 h ([3]; Water) [µg/mL]	Chemical stability by HPLC purity % [4, 8] [%]	Chemical stability by HPLC purity % ([4]; Onset (Day 0)) [%]	Weight percent gain (%) [5] [%]	also measured
N#Cc1ccc(COc2cccc(N3CCN(Cc4nc5ccc(C(=O)O)cc5n4C[C@@H]4CCO4)CC3)n2)nc1.N=C(N)NCCC[C@H](N)C(=O)O [Comparative Example 2, L-arginine salt of (S)-2-((4-(6-((5-cyanopyridin-2-yl)methoxy)pyridin-2-yl)piperazin-1-yl)methyl)-1-(oxetan-2-ylmethyl)-1H-benzo[d]imidazol-6-carboxylic acid]	7.368	–	–	–	–	–	–	–	–	–	–	–	6.84	–
CNC[C@H](O)[C@@H](O)[C@H](O)[C@H](O)CO.N#Cc1ccc(COc2cccc(N3CCN(Cc4nc5ccc(C(=O)O)cc5n4C[C@@H]4CCO4)CC3)n2)nc1 [Comparative Example 3, meglumine salt of (S)-2-((4-(6-((5-cyanopyridin-2-yl)methoxy)pyridin-2-yl)piperazin-1-yl)methyl)-1-(oxetan-2-ylmethyl)-1H-benzo[d]imidazol-6-carboxylic acid]	2.8132	–	–	–	–	–	–	–	–	–	–	–	17.77	–
N#Cc1ccc(COc2cccc(N3CCN(Cc4nc5ccc(C(=O)[O-])cc5n4C[C@@H]4CCO4)CC3)n2)nc1.[K+] [Comparative Example 4, potassium salt of (S)-2-((4-(6-((5-cyanopyridin-2-yl)methoxy)pyridin-2-yl)piperazin-1-yl)methyl)-1-(oxetan-2-ylmethyl)-1H-benzo[d]imidazol-6-carboxylic acid]	4.284	–	–	–	–	–	–	–	–	–	–	–	5.97	–
